Experiments:
[1] = system: KASUMI-1 cells; assay: Kasumi cell proliferation CTG; type: cell-based; details: Homo sapiens, Kasumi 1, 120 h, treated for 120 hours, CellTiter-Glo
Procedure: Cell culture: KASUMI-1 cells (ACC20, Leibniz-Institut DSMZ Deutsche Sammlung von Mikroorganismen und Zellkulturen GmbH) were grown in RPMI 1640 (31870-025, Gibco) supplemented with 20% fetal bovine serum (F1524, Gibco), 1 mM sodium pyruvate (11360-039, Gibco) and 2 mM Glutamax (35050-038, Gibco) in a 5% CO2 humidified incubator at 37° C.
Cell treatment and cell growth assessment: KASUMI-1 cells were seeded in ultra-low attachment 384-well culture plate (MS-9384WZ, SBio) at a final concentration of 250 000 cells/ml (35 μL/well) and treated for 120 hours with compounds inhibiting the METTL3/14 activity (10 serial semi-log dilutions, 30 μM as top concentration). Upon treatment, Kasumi1 cells were incubated for 10 min at RT with the CellTiter-Glo reagent (G7571, Promega). Measurement of the luminescence signal was performed on a microplate reader (Ensight, PerkinElmer).

[2] = system: Caov-3 cells; assay: Caov3 cell proliferation CTG; type: cell-based; details: Homo sapiens, treated for 120 hours, CellTiter-Glo
Procedure: Cell treatment and cell growth assessment: 18 hours post-seeding in white 384-Viewplate (6007480, PerkinElmer) at 1500 cells/well, Caov3 cells were treated for 120 hours with compounds inhibiting the METTL3/14 activity (10 serial semi-log dilutions, 30 μM as top concentration). Upon treatment, Coav-3 cells were incubated for 10 min at RT with the CellTiter-Glo reagent (G7571, Promega). Measurement of the luminescence signal was performed on a microplate reader (Ensight, PerkinElmer).

[3] = biological target: METTL3/14 (Homo sapiens (Human), UniProt Q86U44); assay: METTL3/14 methyltransferase assay (RapidFire mass spectrometry, RFMS); type: biochemical; details: 5 nM METTL3/14, 0.2 μM RNA substrate, 0.5 μM SAM, 60 minutes at room temperature
Procedure: The enzymatic assay was established to determine IC50 values for inhibition of RNA methyltransferase activity. The enzyme used was full-length his-tagged METTL3 co-expressed with full length FLAG-tagged METTL14 in a baculovirus expression system. Enzymatic reactions were performed at room temperature in 384-well plates using a final reaction volume of 20 μL containing 20 mM TrisCl pH 7.6, 1 mM DTT, 0.01% Tween-20. 5 nM final concentration of METTL3/14 was pre-incubated with various compound concentrations for 10 minutes, followed by addition of 0.2 μM final concentration synthetic RNA substrate (5′P-[…]-3′) and 0.5 μM final concentration S-adenosyl-methionine (SAM). The reaction was incubated for a further 60 minutes at room temperature, and then quenched by the addition of 40 μL 7.5% TCA with two internal product standards (D4-SAH and 13C10-SAH). After termination, plates were sealed, centrifuged and stored at 4° C. until analysis.
RNA methyltransferase activity was measured label free using the RapidFire™ mass spectrometry (RF/MS) platform. Stopped and stable assay plates were analyzed on the Agilent RF300 integrated autosampler/solid-phase extraction (SPE) system coupled to an ABSciex 4000 mass spectrometer for the generation of the product S-adenosyl homocysteine (SAH) and normalized to the ratio of signal of the two internal product standards, respectively. Solvent A was water containing 0.1% (v/v) TCA. Solvent B was acetonitrile/0.1% ammonium acetate (8:2, v/v). More specifically, plates were centrifuged at 4350 rpm for 10 min, samples were aspirated under vacuum for 600 ms, then loaded onto a C18 solid-phase extraction cartridge and washed for 3 s with solvent A at a flow rate of 1.5 mL/min. Retained product and internal standards were eluted with solvent B at a flow rate of 1 mL/min for 3 s and finally the cartridge was re-equilibrated with solvent A for 500 ms. The mass transition for the product (SAH) was 384.9/135.9 Da. Transitions of the two internal product standards (IS1: D4-SAH and IS2: 13C10-SAH) were 389.1/135.8 Da and 395.0/134.2 Da, respectively. Ratios of SAH/IS1 and SAH/IS2 were used for normalization of matrix effects. IC50 values were calculated based on dilution series of individual compounds. Potency of a compound was measured at varied inhibitor concentrations and normalized to control wells without RNA substrate and without inhibition (DMSO only).

Sequence of METTL3/14 (Q86U44 whole entry): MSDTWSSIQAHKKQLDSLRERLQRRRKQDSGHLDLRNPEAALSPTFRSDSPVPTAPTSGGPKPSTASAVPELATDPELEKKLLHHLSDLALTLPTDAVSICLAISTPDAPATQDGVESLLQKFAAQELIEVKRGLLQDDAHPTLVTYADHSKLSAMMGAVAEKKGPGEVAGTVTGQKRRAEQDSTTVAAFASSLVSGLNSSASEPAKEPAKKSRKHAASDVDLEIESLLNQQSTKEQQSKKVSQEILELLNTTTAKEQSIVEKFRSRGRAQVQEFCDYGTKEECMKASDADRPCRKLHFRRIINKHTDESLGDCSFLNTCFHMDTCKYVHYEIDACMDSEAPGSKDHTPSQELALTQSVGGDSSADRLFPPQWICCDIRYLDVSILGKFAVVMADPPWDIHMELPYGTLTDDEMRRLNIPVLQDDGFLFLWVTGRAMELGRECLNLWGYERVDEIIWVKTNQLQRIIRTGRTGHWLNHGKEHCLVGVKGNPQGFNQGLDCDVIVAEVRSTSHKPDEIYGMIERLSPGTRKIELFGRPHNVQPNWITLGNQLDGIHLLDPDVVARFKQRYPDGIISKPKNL
Sequence of METTL3/14 (Q9HCE5 whole entry partner): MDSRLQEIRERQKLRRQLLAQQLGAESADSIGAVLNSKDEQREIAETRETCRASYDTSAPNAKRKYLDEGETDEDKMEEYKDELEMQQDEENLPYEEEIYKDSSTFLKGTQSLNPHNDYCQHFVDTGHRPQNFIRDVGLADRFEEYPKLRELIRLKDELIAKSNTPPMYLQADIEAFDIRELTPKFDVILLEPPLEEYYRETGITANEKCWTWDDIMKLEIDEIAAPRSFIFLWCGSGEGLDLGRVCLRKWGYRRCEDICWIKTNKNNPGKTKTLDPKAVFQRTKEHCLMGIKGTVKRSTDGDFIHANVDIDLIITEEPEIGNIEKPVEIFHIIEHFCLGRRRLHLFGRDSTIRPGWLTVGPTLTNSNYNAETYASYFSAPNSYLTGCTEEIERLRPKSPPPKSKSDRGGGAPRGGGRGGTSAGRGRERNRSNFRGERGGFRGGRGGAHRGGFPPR

IC50 [3] [nM]	Structure (SMILES)	IC50 [1] [nM]	IC50 [2] [nM]
117	Nc1ncnc2c1c(Br)cn2[C@@H]1C[C@H](c2cccc(CCNCC34CC(F)(C3)C4)c2)[C@@H](O)[C@H]1O [Example 37, (1R,2S,3R,5R)-3-{4-amino-5-bromo-7H-pyrrolo[2,3-d]pyrimidin-7-yl}-5-(3-{2-[{{3-fluorobicyclo[1.1.1]pentan-1-yl}methyl)amino]ethyl}phenyl)cyclopentane-1,2-diol]	2140	3260
2640	Nc1ncnc2c1c(Br)cn2[C@@H]1C[C@H](c2cccc(CN3CCC4(CCC4)C3)c2)[C@@H](O)[C@H]1O [Example 38, (1R,2S,3R,5R)-3-{4-amino-5-bromo-7H-pyrrolo[2,3-d]pyrimidin-7-yl}-5-[3-({6-azaspiro[3.4]octan-6-yl}methyl)phenyl]cyclopentane-1,2-diol]	2950	6760
3010	Nc1ncnc2c1c(Br)cn2[C@@H]1C[C@H](c2cccc(CNCC34CC(F)(C3)C4)c2)[C@@H](O)[C@H]1O [Example 39, (1R,2S,3R,5R)-3-{4-amino-5-bromo-7H-pyrrolo[2,3-d]pyrimidin-7-yl}-5-(3-{[{{3-fluorobicyclo[1.1.1]pentan-1-yl}methyl)amino]methyl}phenyl)cyclopentane-1,2-diol]	2390	4640
